Key:
Assay type in all cases: functional
[1] = tested on: Rattus norvegicus; assay: Anti-inflammatory activity inRattus norvegicus albino (rat) assessed as inhibition of carrageenan-induced paw edema at 100 mg/kg administered 1 hr prior to carrageenan-challenge measured after 3 hr by plethysmometric analysis relative to control
[2] = tested on: Rattus norvegicus; assay: Anti-inflammatory activity inRattus norvegicus albino (rat) assessed as inhibition of carrageenan-induced paw edema at 100 mg/kg administered 1 hr prior to carrageenan-challenge measured after 2 hr by plethysmometric analysis relative to control
[3] = tested on: Rattus norvegicus; assay: Anti-inflammatory activity inRattus norvegicus albino (rat) assessed as inhibition of carrageenan-induced paw edema at 100 mg/kg administered 1 hr prior to carrageenan-challenge measured after 1 hr by plethysmometric analysis relative to control
[4] = tested on: Escherichia coli; assay: Antibacterial activity against Escherichia coli at 100 ug/ml after 24 hr by paper disk diffusion method; details: read-out: IZ
[5] = tested on: Escherichia coli; assay: Antibacterial activity against Escherichia coli at 50 ug/ml after 24 hr by paper disk diffusion method; details: read-out: IZ
[6] = tested on: Staphylococcus aureus; assay: Antibacterial activity against Staphylococcus aureus at 100 ug/ml after 24 hr by paper disk diffusion method; details: read-out: IZ
[7] = tested on: Staphylococcus aureus; assay: Antibacterial activity against Staphylococcus aureus at 50 ug/ml after 24 hr by paper disk diffusion method; details: read-out: IZ

Row | Compound | inhibition in vivo at 100 mg/kg [1] | inhibition in vivo at 100 mg/kg [2] | inhibition in vivo at 100 mg/kg [3] | zone of inhibition at 100 µg/mL [4] | zone of inhibition at 50 µg/mL [5] | zone of inhibition at 100 µg/mL [6] | zone of inhibition at 50 µg/mL [7]
1 | CCOC(=O)C1=C(N)Oc2c(c(O)nc3ccccc23)C1c1ccccc1 (centres undefined) | 75.2% | 61.9% | 54.2% | 16.2 mm | 15.2 mm | 16.7 mm | 15.6 mm
2 | CCOC(=O)C1=C(N)Oc2c(c(=O)[nH]c3ccc(C)cc23)C1c1ccccc1Cl (centres undefined) | 74.2% | 68.1% | 58.1% | 17.3 mm | 15.4 mm | 17.3 mm | 16.1 mm
3 | CCOC(=O)C1=C(N)Oc2c(c(=O)[nH]c3ccc(C)cc23)C1c1cccc(Cl)c1 (centres undefined) | 75.5% | 69.7% | 56.4% | 15.2 mm | 14.1 mm | 15.7 mm | 14.6 mm
4 | CCOC(=O)C1=C(N)Oc2c(c(=O)[nH]c3ccc(C)cc23)C1c1ccc(Cl)cc1 (centres undefined) | 77.7% | 70.3% | 59.4% |  | 15.4 mm | 18.5 mm | 15.8 mm
5 | CCOC(=O)C1=C(N)Oc2c(c(=O)[nH]c3ccc(C)cc23)C1c1ccc(O)cc1 (centres undefined) | 69.2% | 70.4% | 57.1% | 18.2 mm | 16.2 mm | 19.7 mm | 17.6 mm
6 | CCOC(=O)C1=C(N)Oc2c(c(=O)[nH]c3ccc(C)cc23)C1c1cccc([N+](=O)[O-])c1 (centres undefined) | 75.5% | 70.3% | 54.3% | 17.4 mm | 16.5 mm | 19.2 mm | 18.1 mm
7 | CCOC(=O)C1=C(N)Oc2c(c(=O)[nH]c3ccc(C)cc23)C1c1ccccc1 (centres undefined) | 75.2% | 71.1% | 56.2% | 16.2 mm | 15.7 mm |  | 14.7 mm
8 | CCOC(=O)C1=C(N)Oc2c(c(=O)[nH]c3ccccc23)C1c1ccccc1Cl (centres undefined) | 80.6% | 69.4% | 55.6% | 15 mm | 13.7 mm | 16.3 mm | 15.2 mm
9 | CCOC(=O)C1=C(N)Oc2c(c(=O)[nH]c3ccccc23)C1c1cccc(Cl)c1 (centres undefined) | 75.9% | 68.5% | 57.6% |  | 14.1 mm | 15.7 mm | 15.4 mm
10 | CCOC(=O)C1=C(N)Oc2c(c(=O)[nH]c3ccccc23)C1c1ccc(Cl)cc1 (centres undefined) | 80.7% | 66.1% | 56.2% | 16.2 mm | 15.2 mm | 16.7 mm | 16.3 mm
11 | CCOC(=O)C1=C(N)Oc2c(c(=O)[nH]c3ccccc23)C1c1ccc(O)cc1 (centres undefined) | 75.2% | 63.4% | 58.4% | 17 mm | 15.7 mm | 17.6 mm | 16.9 mm
12 | CCOC(=O)C1=C(N)Oc2c(c(=O)[nH]c3ccccc23)C1c1cccc([N+](=O)[O-])c1 (centres undefined) | 79.3% | 69% | 53.5% | 17 mm | 16.1 mm |  | 17.3 mm
13 | CC1COc2c(N3CCN(C)CC3)c(F)cc3c(=O)c(C(=O)O)cn1c23 (centres undefined) [OFLOXACIN] |  |  |  |  |  | 24.3 mm | 21.2 mm
14 | CN[C@@H]1[C@H](O[C@H]2[C@H](O[C@H]3[C@H](O)[C@@H](O)[C@H](N=C(N)N)[C@@H](O)[C@@H]3N=C(N)N)O[C@@H](C)[C@]2(O)C=O)O[C@@H](CO)[C@H](O)[C@H]1O [STREPTOMYCIN] |  |  |  | 25.2 mm | 20.1 mm |  | 
